According to US20080009418A1, “Selective Inhibitors” (Alchemia LTD., priority 2004, published 2008):

Tests used:
Human δ-opioid (DOP) = molecular target: T1, Human δ-opioid (DOP) (Homo sapiens, UniProt P41143); test: Radioligand binding, human δ-opioid (DOP) membranes, FlashPlate, [3H]-Bremazocine; settings: compound at 10 μM; for A1 radioligand binding, percentage inhibition: [3H]-Bremazocine
T1 construct: purchased Perkin Elmer Biosignal
Method in brief: (§1)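 Cloned human receptor membranes were coated onto FlashPlate wells and incubated with radioligand and compound (added from a 0.5 mM DMSO daughter plate) for 1 hour at room temperature in the dark. Scintillation counting gave percent inhibition, with DMSO defining total and reference ligand defining non-specific binding.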

Human κ-Opioid (KOP) = molecular target: T2, Human κ-Opioid (KOP) (Homo sapiens, UniProt P41145); test: Radioligand binding, human κ-opioid (KOP) membranes, filtration, [3H]-Diprenorphine; settings: compound at 10 μM; for A2 radioligand binding, percentage inhibition: [3H]-Diprenorphine
T2 construct: purchased Perkin Elmer Biosignal
T2 sequence (P41145 whole entry): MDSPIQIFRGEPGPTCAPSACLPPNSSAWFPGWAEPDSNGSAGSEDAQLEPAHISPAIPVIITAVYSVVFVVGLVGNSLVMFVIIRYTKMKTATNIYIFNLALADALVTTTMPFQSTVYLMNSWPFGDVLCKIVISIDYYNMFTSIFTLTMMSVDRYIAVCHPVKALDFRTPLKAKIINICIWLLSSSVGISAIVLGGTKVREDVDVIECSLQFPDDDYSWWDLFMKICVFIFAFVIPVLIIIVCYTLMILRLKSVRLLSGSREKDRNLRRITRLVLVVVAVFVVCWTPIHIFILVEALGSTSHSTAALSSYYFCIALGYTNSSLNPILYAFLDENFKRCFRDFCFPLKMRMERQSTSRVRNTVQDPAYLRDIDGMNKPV
Method in brief: (§2)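 Filtration binding on cloned human receptor membranes (1 Unit/well), [125I]-Substance P for NK1 and [3H]-Diprenorphine for KOP, 1 h at room temperature. Filters PEI-presoaked, washed with cold 50 mM Tris-HCl pH 7.4, counted by scintillation; percent inhibition calculated, reference ligand defining non-specific binding.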

Human Melanocortin (MC3) = molecular target: T3, Human Melanocortin (MC3) (Homo sapiens, UniProt P41968); test: Radioligand binding, human melanocortin MC3 membranes, FlashPlate, [125I]-NDP-αMSH; settings: compound at 10 μM; for A3 radioligand binding, percentage inhibition: [125I]-NDP-αMSH
T3 construct: purchased Perkin Elmer Biosignal
T3 sequence (P41968 whole entry): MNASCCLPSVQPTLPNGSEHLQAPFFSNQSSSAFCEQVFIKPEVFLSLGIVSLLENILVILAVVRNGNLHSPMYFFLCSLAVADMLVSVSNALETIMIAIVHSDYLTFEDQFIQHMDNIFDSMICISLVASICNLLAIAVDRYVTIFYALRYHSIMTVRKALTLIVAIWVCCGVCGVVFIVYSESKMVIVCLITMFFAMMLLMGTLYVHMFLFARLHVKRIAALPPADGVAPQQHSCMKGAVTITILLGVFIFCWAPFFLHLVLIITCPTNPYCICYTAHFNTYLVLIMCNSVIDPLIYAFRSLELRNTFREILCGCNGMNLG
Method in brief: as §1

Human Melanocortin (MC4) = molecular target: T4, Human Melanocortin (MC4) (Homo sapiens, UniProt P32245); test: Radioligand binding, human melanocortin MC4 membranes, FlashPlate, [125I]-NDP-αMSH; settings: compound at 10 μM; for A4 radioligand binding, percentage inhibition: [125I]-NDP-αMSH
T4 construct: purchased Perkin Elmer Biosignal
T4 sequence (P32245 whole entry): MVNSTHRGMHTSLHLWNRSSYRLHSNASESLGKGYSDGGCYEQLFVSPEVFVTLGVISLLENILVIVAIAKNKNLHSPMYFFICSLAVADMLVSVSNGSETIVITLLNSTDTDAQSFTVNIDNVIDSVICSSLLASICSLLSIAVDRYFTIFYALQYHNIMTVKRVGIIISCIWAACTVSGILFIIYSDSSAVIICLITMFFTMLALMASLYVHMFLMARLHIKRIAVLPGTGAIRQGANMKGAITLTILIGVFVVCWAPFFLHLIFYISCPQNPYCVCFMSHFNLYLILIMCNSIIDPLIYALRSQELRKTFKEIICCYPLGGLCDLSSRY
Method in brief: as §1

Human melanocortin (MC5) = molecular target: T5, Human melanocortin (MC5) (Homo sapiens, UniProt P33032); test: Radioligand binding, human melanocortin MC5 membranes, FlashPlate, [125I]-NDP-αMSH; settings: compound at 10 μM; for A5 radioligand binding, percentage inhibition: [125I]-NDP-αMSH
T5 construct: purchased Perkin Elmer Biosignal
T5 sequence (P33032 whole entry): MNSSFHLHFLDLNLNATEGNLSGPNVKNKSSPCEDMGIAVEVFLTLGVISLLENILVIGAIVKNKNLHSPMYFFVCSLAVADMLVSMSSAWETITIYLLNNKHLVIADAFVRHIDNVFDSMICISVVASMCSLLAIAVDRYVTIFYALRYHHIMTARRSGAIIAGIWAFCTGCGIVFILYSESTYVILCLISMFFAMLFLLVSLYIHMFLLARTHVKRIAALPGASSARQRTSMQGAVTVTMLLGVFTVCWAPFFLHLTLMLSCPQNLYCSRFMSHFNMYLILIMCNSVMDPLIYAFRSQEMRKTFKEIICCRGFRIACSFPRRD
Method in brief: as §1

[1] = molecular target: T6, Human melanin-concentrating hormone (MCH1) (Homo sapiens, UniProt Q99705); test: Radioligand binding, human melanin-concentrating hormone MCH1 membranes, FlashPlate, [125I]-S36057; settings: compound at 10 μM; for A6 radioligand binding, percentage inhibition: [125I]-S36057
T6 construct: purchased Perkin Elmer Biosignal
T6 sequence (Q99705 whole entry): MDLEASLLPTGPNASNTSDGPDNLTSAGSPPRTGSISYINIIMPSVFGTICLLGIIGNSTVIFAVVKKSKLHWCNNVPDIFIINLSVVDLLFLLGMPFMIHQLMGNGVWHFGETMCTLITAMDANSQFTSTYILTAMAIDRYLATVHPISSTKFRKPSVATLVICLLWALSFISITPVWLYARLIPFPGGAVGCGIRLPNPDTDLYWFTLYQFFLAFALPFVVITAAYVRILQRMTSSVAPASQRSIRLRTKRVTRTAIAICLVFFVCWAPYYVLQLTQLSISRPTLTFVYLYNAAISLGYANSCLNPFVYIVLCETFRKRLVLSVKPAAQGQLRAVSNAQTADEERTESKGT
Method in brief: as §1

Human μ-opioid (MOP) = molecular target: T7, Human μ-opioid (MOP) (Homo sapiens, UniProt P35372); test: Radioligand binding, human μ-opioid (MOP) membranes, FlashPlate, [3H]-Naloxone; settings: compound at 10 μM; for A7 radioligand binding, percentage inhibition: [3H]-Naloxone
T7 construct: purchased Perkin Elmer Biosignal
T7 sequence (P35372 whole entry): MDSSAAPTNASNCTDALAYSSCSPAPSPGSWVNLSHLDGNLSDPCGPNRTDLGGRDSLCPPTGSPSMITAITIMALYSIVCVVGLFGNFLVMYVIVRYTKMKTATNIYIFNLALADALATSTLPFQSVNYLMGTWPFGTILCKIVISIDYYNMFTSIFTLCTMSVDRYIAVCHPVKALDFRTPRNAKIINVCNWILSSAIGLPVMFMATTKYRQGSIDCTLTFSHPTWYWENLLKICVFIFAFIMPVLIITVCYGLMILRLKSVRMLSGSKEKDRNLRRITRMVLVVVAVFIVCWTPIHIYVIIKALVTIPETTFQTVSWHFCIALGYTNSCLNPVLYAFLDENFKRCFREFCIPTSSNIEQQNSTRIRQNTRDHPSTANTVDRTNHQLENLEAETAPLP
Method in brief: as §1

Human neurokinin (NK1) = molecular target: T8, Human neurokinin (NK1) (Homo sapiens, UniProt P25103); test: Radioligand binding, human neurokinin NK1 membranes, filtration, [125I]-Substance P; settings: compound at 10 μM; for A8 radioligand binding, percentage inhibition: [125I]-Substance P
T8 construct: purchased Perkin Elmer Biosignal
T8 sequence (P25103 whole entry): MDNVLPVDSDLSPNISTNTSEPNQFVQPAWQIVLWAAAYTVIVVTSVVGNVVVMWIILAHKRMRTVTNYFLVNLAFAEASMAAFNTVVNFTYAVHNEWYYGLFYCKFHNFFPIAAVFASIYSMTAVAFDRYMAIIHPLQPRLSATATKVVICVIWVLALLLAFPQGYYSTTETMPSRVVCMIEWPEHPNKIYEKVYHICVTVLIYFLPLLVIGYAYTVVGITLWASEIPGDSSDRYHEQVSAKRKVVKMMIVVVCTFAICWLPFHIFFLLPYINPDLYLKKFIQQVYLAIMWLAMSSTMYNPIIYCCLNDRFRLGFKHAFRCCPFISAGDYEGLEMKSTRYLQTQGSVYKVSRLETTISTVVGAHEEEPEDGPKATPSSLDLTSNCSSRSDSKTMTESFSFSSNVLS
Method in brief: as §2

[2] = molecular target: T9, Human neuropeptide Y (NPY-Y1) (Homo sapiens, UniProt P25929); test: Radioligand binding, human neuropeptide Y NPY-Y1 membranes, FlashPlate, [125I]-PYY; settings: compound at 10 μM; for A9 radioligand binding, percentage inhibition: [125I]-PYY
T9 construct: purchased Perkin Elmer Biosignal
T9 sequence (P25929 1-384): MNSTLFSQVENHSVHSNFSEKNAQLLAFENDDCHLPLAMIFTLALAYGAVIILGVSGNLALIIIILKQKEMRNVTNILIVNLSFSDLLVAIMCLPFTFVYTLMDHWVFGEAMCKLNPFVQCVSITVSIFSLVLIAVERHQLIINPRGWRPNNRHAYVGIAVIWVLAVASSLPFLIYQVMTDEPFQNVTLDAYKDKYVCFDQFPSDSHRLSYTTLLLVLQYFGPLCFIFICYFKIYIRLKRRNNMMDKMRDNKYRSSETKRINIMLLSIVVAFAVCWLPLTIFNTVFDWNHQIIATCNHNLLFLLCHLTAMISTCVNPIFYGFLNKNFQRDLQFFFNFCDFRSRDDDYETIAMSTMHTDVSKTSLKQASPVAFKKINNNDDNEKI
Method in brief: as §1

Human opioid (ORL1) = molecular target: T10, Human opioid (ORL1) (Homo sapiens, UniProt P41146); test: Radioligand binding, human opioid ORL1 membranes, FlashPlate, [125I]-Nociceptin; settings: compound at 10 μM; for A10 radioligand binding, percentage inhibition: [125I]-Nociceptin
T10 construct: purchased Perkin Elmer Biosignal
T10 sequence (P41146 whole entry): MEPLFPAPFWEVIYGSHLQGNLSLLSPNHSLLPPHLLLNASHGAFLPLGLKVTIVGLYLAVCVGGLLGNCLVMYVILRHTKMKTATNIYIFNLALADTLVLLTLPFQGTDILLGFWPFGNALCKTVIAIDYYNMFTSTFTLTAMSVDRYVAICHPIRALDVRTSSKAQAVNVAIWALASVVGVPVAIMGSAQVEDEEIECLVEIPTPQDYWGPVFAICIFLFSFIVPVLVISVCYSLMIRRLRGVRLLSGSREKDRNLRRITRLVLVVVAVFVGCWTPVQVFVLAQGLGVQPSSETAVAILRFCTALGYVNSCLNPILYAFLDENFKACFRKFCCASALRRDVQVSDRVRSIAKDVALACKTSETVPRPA
Method in brief: as §1

Mouse urotensin (mUR2) = molecular target: T11, Mouse urotensin (mUR2) (Mus musculus, UniProt Q8VIH9); test: Radioligand binding, mouse urotensin mUR2 membranes, FlashPlate, [125I]-Urotensin II; settings: compound at 10 μM; for A11 radioligand binding, percentage inhibition: [125I]-Urotensin II
T11 construct: purchased Perkin Elmer Biosignal
T11 sequence (Q8VIH9 1-385): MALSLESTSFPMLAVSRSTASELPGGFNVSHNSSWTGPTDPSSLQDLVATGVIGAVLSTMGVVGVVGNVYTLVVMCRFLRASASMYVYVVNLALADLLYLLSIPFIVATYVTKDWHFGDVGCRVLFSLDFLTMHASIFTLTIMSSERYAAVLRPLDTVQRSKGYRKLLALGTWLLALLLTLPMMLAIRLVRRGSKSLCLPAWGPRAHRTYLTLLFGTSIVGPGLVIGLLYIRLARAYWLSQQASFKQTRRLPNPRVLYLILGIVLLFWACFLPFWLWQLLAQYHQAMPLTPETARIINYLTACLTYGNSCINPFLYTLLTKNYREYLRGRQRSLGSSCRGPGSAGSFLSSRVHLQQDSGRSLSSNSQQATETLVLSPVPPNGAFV
Method in brief: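 Cloned mouse urotensin (mUR2) receptor membranes from Perkin Elmer Biosignal were immobilized in FlashPlate microplates using a proprietary coating. Each well got 19.5 μl buffer, then 0.5 μl of DMSO, reference ligand, or compound. Adding 5 μl of [125I]-Urotensin II, diluted to 5× final concentration in binding buffer, started binding. Plates were sealed with TopSeal-A and incubated 1 hour at room temperature in the dark. Wells were counted for 30 seconds each on a TopCount after a 60-second delay, and percentage inhibition was calculated.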

T1 sequence (P41143 whole entry): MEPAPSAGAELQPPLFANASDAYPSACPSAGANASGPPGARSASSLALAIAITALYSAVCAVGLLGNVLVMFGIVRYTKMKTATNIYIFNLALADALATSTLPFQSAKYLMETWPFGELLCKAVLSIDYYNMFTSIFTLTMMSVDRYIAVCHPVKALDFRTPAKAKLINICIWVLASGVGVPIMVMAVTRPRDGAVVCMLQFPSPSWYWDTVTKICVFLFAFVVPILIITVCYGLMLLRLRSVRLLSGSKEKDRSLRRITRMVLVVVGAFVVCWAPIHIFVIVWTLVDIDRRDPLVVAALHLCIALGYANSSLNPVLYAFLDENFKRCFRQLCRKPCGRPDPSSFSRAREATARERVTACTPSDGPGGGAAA

Row | SMILES | A1 radioligand binding, percentage inhibition (Human δ-opioid (DOP)) | A2 radioligand binding, percentage inhibition (Human κ-Opioid (KOP)) | A3 radioligand binding, percentage inhibition (Human Melanocortin (MC3)) | A4 radioligand binding, percentage inhibition (Human Melanocortin (MC4)) | A5 radioligand binding, percentage inhibition (Human melanocortin (MC5)) | A6 radioligand binding, percentage inhibition [1] | A7 radioligand binding, percentage inhibition (Human μ-opioid (MOP)) | A8 radioligand binding, percentage inhibition (Human neurokinin (NK1)) | A9 radioligand binding, percentage inhibition [2] | A10 radioligand binding, percentage inhibition (Human opioid (ORL1)) | A11 radioligand binding, percentage inhibition (Mouse urotensin (mUR2)) | other results
1 | COCC1OC(OCc2ccccc2)C(NC(=O)CCCN)C(OCc2ccc(Cl)cc2)C1O (stereo not drawn) [compound 180] | − (“−” indicates less than 50% inhibition at 10 μM) | − (“−” indicates less than 50% inhibition at 10 μM) | − (“−” indicates less than 50% inhibition at 10 μM) | − (“−” indicates less than 50% inhibition at 10 μM) | − (“−” indicates less than 50% inhibition at 10 μM) | − (“−” indicates less than 50% inhibition at 10 μM) | − (“−” indicates less than 50% inhibition at 10 μM) | + (“+” indicates greater than 50% inhibition at 10 μM) | − (“−” indicates less than 50% inhibition at 10 μM) | − (“−” indicates less than 50% inhibition at 10 μM) | − (“−” indicates less than 50% inhibition at 10 μM) | –
2 | CO[C@H]1[C@H](O)[C@@H](COCc2ccc(Cl)cc2)OC(OCc2ccccc2)[C@@H]1NC(=O)CCCN (stereo partly drawn) [compound 92] | − (“−” indicates less than 50% inhibition at 10 μM) | − (“−” indicates less than 50% inhibition at 10 μM) | − (“−” indicates less than 50% inhibition at 10 μM) | − (“−” indicates less than 50% inhibition at 10 μM) | − (“−” indicates less than 50% inhibition at 10 μM) | − (“−” indicates less than 50% inhibition at 10 μM) | − (“−” indicates less than 50% inhibition at 10 μM) | + (“+” indicates greater than 50% inhibition at 10 μM) | − (“−” indicates less than 50% inhibition at 10 μM) | − (“−” indicates less than 50% inhibition at 10 μM) | − (“−” indicates less than 50% inhibition at 10 μM) | –
3 | COC[C@H]1OC(OCCc2ccccc2)[C@H](NC(=O)CNC(=N)N)[C@@H](OCc2ccc(-c3ccccc3)cc2)[C@@H]1O (stereo partly drawn) [compound 40] | – | – | – | – | – | – | – | – | – | – | – | A1 radioligand binding inhibition (Human δ-opioid (DOP); human δ-opioid (DOP) membranes): − (“−” indicates less than 50% inhibition at 10 μM); A2 radioligand binding inhibition (Human κ-Opioid (KOP); human κ-opioid (KOP) membranes): − (“−” indicates less than 50% inhibition at 10 μM); A3 radioligand binding inhibition (Human Melanocortin (MC3); human melanocortin MC3 membranes): + (“+” indicates greater than 50% inhibition at 10 μM); A4 radioligand binding inhibition (Human Melanocortin (MC4); human melanocortin MC4 membranes): + (“+” indicates greater than 50% inhibition at 10 μM); A5 radioligand binding inhibition (Human melanocortin (MC5); human melanocortin MC5 membranes): + (“+” indicates greater than 50% inhibition at 10 μM); A6 radioligand binding inhibition ([1]; human MCH1 membranes): + (“+” indicates greater than 50% inhibition at 10 μM); A7 radioligand binding inhibition (Human μ-opioid (MOP); human μ-opioid (MOP) membranes): − (“−” indicates less than 50% inhibition at 10 μM); A8 radioligand binding inhibition (Human neurokinin (NK1); human neurokinin NK1 membranes): − (“−” indicates less than 50% inhibition at 10 μM); A9 radioligand binding inhibition ([2]; human NPY-Y1 membranes): − (“−” indicates less than 50% inhibition at 10 μM); A10 radioligand binding inhibition (Human opioid (ORL1); human ORL1 membranes): − (“−” indicates less than 50% inhibition at 10 μM); A11 radioligand binding inhibition (Mouse urotensin (mUR2); mouse urotensin mUR2 membranes): − (“−” indicates less than 50% inhibition at 10 μM)
